Test results from US7807678B2, “Peptidomimetics of biologically active metallopeptides” (Palatin Technologies, Inc., priority 2001, dated 2010).

How the values were obtained:
Conditions in all cases: 1 μM compound; inhibition of 125I-NDP-α-MSH binding; mean of triplicates; results less than 0% reported as 0%
MC5-R = MC5-R (Homo sapiens, UniProt P33032); assay: Competitive inhibition binding assay, 125I-NDP-α-MSH, MC5-R; design: expressed in transfected cells
Procedure: (§1) The competitive inhibition binding assay was conducted using membranes prepared from hMC3-R, hMC4-R, hMC5-R, and B-16 mouse melanoma cells (containing MC1-R) using 0.4 nM ^125I-NDP-α-MSH (New England Nuclear, Boston, Mass., USA) in 50 mM HEPES buffer containing 1 mM MgCl2, 2 mM CaCl2, and 5 mM KCl, at pH 7.2. The assay tube also contained a chosen concentration of the test peptidomimetic of this invention, generally 1 μM, for determining its efficacy in inhibiting the binding of ^125I-NDP-α-MSH to its receptor.
(§2) Incubation was for 90 minutes at room temperature, after which the assay mixture was filtered and the membranes washed three times with ice cold buffer. The filter was dried and counted in a gamma counter for remaining radioactivity bound to the membranes. 100% specific binding was defined as the difference in radioactivity (cpm) bound to cell membranes in the absence and presence of 1 μM α-MSH. […] Each assay was conducted in triplicate and the actual mean values are described.

MC4-R = MC4-R (Homo sapiens, UniProt P32245); assay: Competitive inhibition binding assay, 125I-NDP-α-MSH, MC4-R; design: expressed in transfected cells
Chain of MC4-R (P32245 whole entry): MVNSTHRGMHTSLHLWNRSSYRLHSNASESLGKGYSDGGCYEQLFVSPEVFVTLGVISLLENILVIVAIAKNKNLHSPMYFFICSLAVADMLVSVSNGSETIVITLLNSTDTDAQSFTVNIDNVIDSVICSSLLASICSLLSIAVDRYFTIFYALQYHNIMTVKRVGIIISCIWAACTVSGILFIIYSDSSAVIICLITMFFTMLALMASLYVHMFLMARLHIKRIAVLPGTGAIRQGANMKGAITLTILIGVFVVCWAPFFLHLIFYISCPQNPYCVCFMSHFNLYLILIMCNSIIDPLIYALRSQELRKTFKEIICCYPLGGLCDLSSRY
Procedure: as §1, §2

MC3-R = MC3-R (Homo sapiens, UniProt P41968); assay: Competitive inhibition binding assay, 125I-NDP-α-MSH, MC3-R; design: expressed in transfected cells
Chain of MC3-R (P41968 whole entry): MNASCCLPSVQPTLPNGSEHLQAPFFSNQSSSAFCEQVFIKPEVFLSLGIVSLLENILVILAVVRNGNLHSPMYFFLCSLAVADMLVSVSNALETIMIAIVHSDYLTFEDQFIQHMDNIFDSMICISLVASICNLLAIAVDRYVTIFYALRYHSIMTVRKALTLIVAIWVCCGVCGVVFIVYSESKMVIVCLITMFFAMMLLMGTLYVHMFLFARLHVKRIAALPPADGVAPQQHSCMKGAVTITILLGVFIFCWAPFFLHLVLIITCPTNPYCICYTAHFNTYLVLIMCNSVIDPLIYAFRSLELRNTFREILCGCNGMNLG
Procedure: as §1, §2

[1] = molecular target: T1, MC1-R (B-16 mouse melanoma cells) (Mus musculus, UniProt Q01727); assay: Competitive inhibition binding assay, 125I-NDP-α-MSH, MC1-R
T1 construct: B-16 mouse melanoma cells (containing MC1-R); endogenous in cells; host or cells: B-16 mouse melanoma cells
T1 sequence (Q01727 whole entry): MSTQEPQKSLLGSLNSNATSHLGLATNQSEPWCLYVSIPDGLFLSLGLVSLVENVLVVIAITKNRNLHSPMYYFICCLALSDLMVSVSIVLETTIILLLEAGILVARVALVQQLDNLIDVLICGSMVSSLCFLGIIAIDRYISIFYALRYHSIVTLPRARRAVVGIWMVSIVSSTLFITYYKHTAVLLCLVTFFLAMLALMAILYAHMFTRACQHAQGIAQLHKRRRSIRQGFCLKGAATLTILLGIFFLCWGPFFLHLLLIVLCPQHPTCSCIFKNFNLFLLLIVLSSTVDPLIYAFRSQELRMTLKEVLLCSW
Procedure: as §1, §2

Chain of MC5-R (P33032 whole entry): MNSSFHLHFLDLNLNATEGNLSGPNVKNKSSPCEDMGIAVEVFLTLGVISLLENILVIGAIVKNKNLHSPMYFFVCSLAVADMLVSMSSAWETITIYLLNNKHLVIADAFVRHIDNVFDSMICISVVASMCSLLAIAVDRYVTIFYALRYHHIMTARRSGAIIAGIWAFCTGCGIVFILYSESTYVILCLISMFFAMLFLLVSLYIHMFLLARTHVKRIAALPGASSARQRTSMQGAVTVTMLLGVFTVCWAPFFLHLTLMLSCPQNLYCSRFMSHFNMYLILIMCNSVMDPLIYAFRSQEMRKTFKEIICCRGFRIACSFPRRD

Row | Structure (SMILES) | Inhibition at 1 μM MC5-R (MC5-R) [%] | Inhibition at 1 μM MC4-R (MC4-R) [%] | Inhibition at 1 μM MC3-R (MC3-R) [%] | Inhibition at 1 μM MC1-R [1] [%]
1 | CS(=O)(=O)NCCC[C@H]1C(=O)N(CCc2ccc3ccccc3c2)CCN1C(=O)[C@@H](Cc1ccc(Cl)cc1Cl)NC(=O)[C@@H](N)COCc1ccccc1 [Example 47] | 14 | 40 | 9 | 0
2 | COC(=O)NCCC[C@H]1C(=O)N(CCc2ccc3ccccc3c2)CCN1C(=O)[C@@H](Cc1ccc(Cl)cc1Cl)NC(=O)[C@@H](N)COCc1ccccc1 [Example 43] | 20 | 43 | 0 | 1
3 | NCCCNC(=O)C1CC(OCc2ccccc2)CN1C(=O)C(Cc1ccccc1)NC(=O)C1CCC(=O)N1C(=O)OCc1ccccc1 (stereo not drawn) [Example 177] | 0 | 7 | 0 | 2
4 | NCCCC[C@H]1C(=O)N2C(CC[C@@H]2COc2ccc3ccccc3c2)N1C(=O)[C@@H](Cc1ccccc1Cl)NC(=O)[C@H]1NCCc2ccccc21 (stereo partly drawn) [Example 87] | 46 | 57 | 8 | 66
5 | [2H]NC(Cc1cnc[nH]1)C(=O)NC(Cc1ccccc1)C(=O)N1C(CCCNC(=N)N)C(=O)N2C(COc3ccc4ccccc4c3)CCC21 (stereo not drawn) [Example 97] | 28 | 69 | 30 | 99
6 | CCCCCCC(=O)NC(COCc1ccccc1)C(=O)NC(Cc1ccc2ccccc2c1)C(=O)N1CC2CC(Oc3ccc4ccccc4c3)CN2C(=O)C1CCCCN (stereo not drawn) [Example 178] | 0 | 0 | 0 | 33
7 | NCCC[C@H]1C(=O)N(CCc2ccc3ccccc3c2)CCN1C(=O)[C@H](N)Cc1ccc(Cl)cc1Cl [Example 49] | 1 | 43 | 0 | 2
8 | NCCCC[C@H]1C(=O)N2C(CC[C@@H]2COc2ccc3ccccc3c2)N1C(=O)[C@@H](Cc1ccccc1Cl)NC(=O)C1(N)CCc2ccccc2C1 (stereo partly drawn) [Example 89] | 22 | 34 | 0 | 24
9 | NCCCCCCC(=O)N[C@@H](COCc1ccccc1)C(=O)N[C@H](Cc1ccc(Cl)cc1)C(=O)N1C2CC[C@H](COc3ccc4c(c3)CCCC4)N2C(=O)[C@@H]1CCCCN (stereo partly drawn) [Example 110] | 84 | 96 | 59 | 97
10 | Cc1ccc(CCN2CCN(C(=O)[C@H](N)Cc3ccc(Cl)cc3Cl)[C@@H](CCCNC(=N)N)C2=O)cc1 [Example 126] | 34 | 78 | 42 | 11
11 | NC(=O)NCC[C@H]1C(=O)N(CCc2ccc3ccccc3c2)CCN1C(=O)[C@H](N)Cc1ccc(Cl)cc1Cl [Example 57] | 5 | 9 | 0 | 11
12 | CCCCCCC(=O)N[C@@H](Cc1cnc[nH]1)C(=O)N[C@H](Cc1ccccc1)C(=O)N1C[C@H](OCc2ccccc2)C[C@H]1C(=O)NCCCN [Example 155] | 7 | 0 | 5 | 71
13 | NCCCC[C@H]1C(=O)N2C(CC[C@@H]2COc2ccc3ccccc3c2)N1C(=O)[C@@H](Cc1ccccc1Cl)NC(=O)[C@@H]1NCCc2ccccc21 (stereo partly drawn) [Example 88] | 20 | 37 | 0 | 48
14 | NCCCC[C@H]1C(=O)N2C(CC[C@@H]2COc2ccc3ccccc3c2)N1C(=O)[C@@H](Cc1ccc(Cl)cc1)NC(=O)[C@@H](N)COCc1ccccc1 (stereo partly drawn) [Example 79] | 86 | 81 | 14 | 90
15 | CCCCCCC(=O)N[C@@H](Cc1cnc[nH]1)C(=O)N[C@H](Cc1ccccc1)C(=O)N1C[C@H](OCc2ccccc2)C[C@H]1C(=O)NCCCNC(=N)N [Example 154] | 1 | 1 | 7 | 92
